In ChEMBL document CHEMBL4359906, “Design and synthesis of new N-terminal fatty acid modified-antimicrobial peptide analogues with potent in vitro biological activity” (Eur J Med Chem, 2019):
Converted amounts (≈) assume the structure as drawn. The source made the active and inactive calls. The rule behind the calls is not given here. Where a SMILES comes first, the peptide text is derived from it. Bridges are numbered along the chain shown (N, C = ends). [ ]: non-standard residue; d: D form. The star is where a group is joined. X1 = CC[C@H](C)CCCCC(=O)*; Dab = NCC[C@H](N)C(=O)O

What was measured:
[1] = tested on: Escherichia coli; experiment: Antibacterial activity against Escherichia coli ATCC 25922 after 18 hrs by CLSI based broth microdilution method; format: functional
[2] = tested on: Escherichia coli; experiment: Antibacterial activity against Escherichia coli ATCC 43837 after 18 hrs by CLSI based broth microdilution method; format: functional
[3] = tested on: Klebsiella pneumoniae; experiment: Antibacterial activity against Klebsiella pneumoniae ATCC 700603 after 18 hrs by CLSI based broth microdilution method; format: functional
[4] = tested on: Pseudomonas aeruginosa; experiment: Antibacterial activity against Pseudomonas aeruginosa ATCC 27853 after 18 hrs by CLSI based broth microdilution method; format: functional
[5] = tested on: Staphylococcus aureus; experiment: Antibacterial activity against Staphylococcus aureus ATCC 25923 after 18 hrs by CLSI based broth microdilution method; format: functional; conditions: ATCC 25923, 18 h
[6] = tested on: Staphylococcus aureus; experiment: Antibacterial activity against methicillin-resistant Staphylococcus aureus 936 after 18 hrs by CLSI based broth microdilution method; format: functional; conditions: Staphylococcus aureus, 936, 18 h
[7] = tested on: Bacillus subtilis; experiment: Antibacterial activity against Bacillus subtilis ATCC 23857 after 18 hrs by CLSI based broth microdilution method; format: functional; conditions: ATCC 23857, 18 h
[8] = tested on: Escherichia coli; experiment: Antibacterial activity against Escherichia coli ATCC 25922 after 18 hrs in presence of NaCl by CLSI based broth microdilution method (reference value: 4 microM); format: functional; conditions: ATCC 25922, 18 h
[9] = tested on: Escherichia coli; experiment: Antibacterial activity against Escherichia coli ATCC 25922 after 18 hrs in presence of KCl by CLSI based broth microdilution method (reference value: 4 microM); format: functional; conditions: ATCC 25922, 18 h
[10] = tested on: Escherichia coli; experiment: Antibacterial activity against Escherichia coli ATCC 25922 after 18 hrs in presence of MgCl2 by CLSI based broth microdilution method (reference value: 4 microM); format: functional; conditions: ATCC 25922, 18 h
[11] = tested on: Escherichia coli; experiment: Antibacterial activity against Escherichia coli ATCC 25922 after 18 hrs in presence of FeCl3 by CLSI based broth microdilution method (reference value: 4 microM); format: functional; conditions: ATCC 25922, 18 h
[12] = tested on: Staphylococcus aureus; experiment: Antibacterial activity against Staphylococcus aureus ATCC 25923 after 18 hrs in presence of NaCl by CLSI based broth microdilution method (reference value: 16 microM); format: functional; conditions: ATCC 25923, 18 h
[13] = tested on: Staphylococcus aureus; experiment: Antibacterial activity against Staphylococcus aureus ATCC 25923 after 18 hrs in presence of KCl by CLSI based broth microdilution method (reference value: 16 microM); format: functional; conditions: ATCC 25923, 18 h
[14] = tested on: Staphylococcus aureus; experiment: Antibacterial activity against Staphylococcus aureus ATCC 25923 after 18 hrs in presence of MgCl2 by CLSI based broth microdilution method (reference value: 16 microM); format: functional; conditions: ATCC 25923, 18 h
[15] = tested on: Staphylococcus aureus; experiment: Antibacterial activity against Staphylococcus aureus ATCC 25923 after 18 hrs in presence of FeCl3 by CLSI based broth microdilution method (reference value: 16 microM); format: functional; conditions: ATCC 25923, 18 h
[16] = tested on: Escherichia coli; experiment: Disruption of membrane integrity in Escherichia coli ATCC 25922 assessed as membrane damage by measuring PI fluorescence at 4 times of MIC incubated for 1 hr by PI dye based flow cytometric analysis (reference value: 1.35%); format: functional
[17] = tested on: Escherichia coli; experiment: Disruption of membrane integrity in Escherichia coli ATCC 25922 assessed as membrane damage by measuring PI fluorescence at 2 times of MIC incubated for 1 hr by PI dye based flow cytometric analysis (reference value: 1.35%); format: functional
[18] = tested on: Escherichia coli; experiment: Induction of membrane disruption in Escherichia coli ATCC 25922 assessed as rough membrane surface at 4 times of MIC after 2 hrs by SEM analysis; format: functional, organism-based
[19] = tested on: Escherichia coli; experiment: Induction of membrane disruption in Escherichia coli ATCC 25922 assessed as corrugated membrane surface at 4 times of MIC after 2 hrs by SEM analysis; format: functional, organism-based
[20] = tested on: Escherichia coli; experiment: Induction of membrane disruption in Escherichia coli ATCC 25922 assessed as degeneration in membrane at 4 times of MIC after 2 hrs by SEM analysis; format: functional, organism-based
[21] = tested on: DNA; experiment: Binding affinity to Escherichia coli ATCC 25922 genomic DNA at 4 x MIC after 30 mins by agarose gel electrophoresis; format: nucleic-acid assay
[22] = tested on: Escherichia coli; experiment: Ratio of antibacterial activity against Escherichia coli ATCC 25922 in presence of NaCl to antibacterial activity against Escherichia coli ATCC 25922; format: functional
[23] = tested on: Escherichia coli; experiment: Ratio of antibacterial activity against Escherichia coli ATCC 25922 in presence of KCl to antibacterial activity against Escherichia coli ATCC 25922; format: functional
[24] = tested on: Escherichia coli; experiment: Ratio of antibacterial activity against Escherichia coli ATCC 25922 in presence of MgCl2 to antibacterial activity against Escherichia coli ATCC 25922; format: functional
[25] = tested on: Escherichia coli; experiment: Ratio of antibacterial activity against Escherichia coli ATCC 25922 in presence of FeCl3 to antibacterial activity against Escherichia coli ATCC 25922; format: functional
[26] = tested on: Staphylococcus aureus; experiment: Ratio of antibacterial activity against Staphylococcus aureus ATCC 25923 in presence of NaCl to antibacterial activity against Staphylococcus aureus ATCC 25923; format: functional
[27] = tested on: Staphylococcus aureus; experiment: Ratio of antibacterial activity against Staphylococcus aureus ATCC 25923 in presence of KCl to antibacterial activity against Staphylococcus aureus ATCC 25923; format: functional
[28] = tested on: Staphylococcus aureus; experiment: Ratio of antibacterial activity against Staphylococcus aureus ATCC 25923 in presence of MgCl2 to antibacterial activity against Staphylococcus aureus ATCC 25923; format: functional
[29] = tested on: Staphylococcus aureus; experiment: Ratio of antibacterial activity against Staphylococcus aureus ATCC 25923 in presence of FeCl3 to antibacterial activity against Staphylococcus aureus ATCC 25923; format: functional
[30] = tested on: Staphylococcus aureus; experiment: Antibiofilm activity against Staphylococcus aureus ATCC 25923 at 1 to 2 times of MIC after 24 hrs by crystal violet staining based assay; format: functional, organism-based
[31] = tested on: Escherichia coli; experiment: Induction of membrane disruption in Escherichia coli ATCC 25922 assessed as fracture in membrane at 4 times of MIC after 2 hrs by SEM analysis; format: functional, organism-based
[32] = tested on: Escherichia coli; experiment: Induction of ROS generation in Escherichia coli ATCC 25922; format: functional, organism-based
[33] = Klebsiella pneumoniae, 700603, 18 h

CCCCCC(=O)NCC(=O)N[C@@H](CC(C)C)C(=O)N[C@@H](CC(C)C)C(=O)N[C@H](CCCCN)C(=O)N[C@@H](CCCNC(=N)N)C(=O)N[C@H](C(=O)N[C@H](CCCCN)C(=O)N[C@H](C(=O)N[C@@H](CC(C)C)C(=O)N[C@@H](CC(C)C)C(N)=O)[C@@H](C)O)[C@@H](C)CC
MIC ([1]; ATCC 25922, 18 h): 128 µM (≈ 160 µg/mL)
MIC ([2]; ATCC 43837, 18 h): > 128 µM
MIC [3, 33]: > 128 µM
MIC ([4]; ATCC 27853, 18 h): 32 µM (≈ 40.1 µg/mL)
MIC [5]: > 128 µM
MIC [6]: > 128 µM
MIC [7]: 16 µM (≈ 20 µg/mL)

CC1(C)S[C@@H]2[C@H](NC(=O)Cc3ccccc3)C(=O)N2[C@H]1C(=O)O [PENICILLIN G]
MIC ([1]; ATCC 25922, 18 h): 64 µM (≈ 21.4 µg/mL)
MIC ([2]; ATCC 43837, 18 h): 8 µM (≈ 2.68 µg/mL)
MIC [3, 33]: > 128 µM
MIC ([4]; ATCC 27853, 18 h): > 128 µM
MIC [5]: < 1 µM
MIC [6]: 32 µM (≈ 10.7 µg/mL)
MIC [7]: < 1 µM

CC[C@H](C)[C@H](NC(=O)[C@H](CCCNC(=N)N)NC(=O)[C@@H](CCCCN)NC(=O)[C@H](CC(C)C)NC(=O)[C@H](CC(C)C)NC(=O)CN)C(=O)N[C@H](CCCCN)C(=O)N[C@H](C(=O)N[C@@H](CC(C)C)C(=O)N[C@@H](CC(C)C)C(N)=O)[C@@H](C)O (H-GLL[dK]RI[dK]TLL-NH2)
MIC ([1]; ATCC 25922, 18 h): > 128 µM
MIC ([2]; ATCC 43837, 18 h): > 128 µM
MIC [3, 33]: > 128 µM
MIC ([4]; ATCC 27853, 18 h): 64 µM (≈ 73.8 µg/mL)
MIC [5]: > 128 µM
MIC [6]: > 128 µM
MIC [7]: 64 µM (≈ 73.8 µg/mL)

CC[C@H](C)CCCCC(=O)N[C@@H](CCN)C(=O)N[C@H](C(=O)N[C@@H](CCN)C(=O)N[C@H]1CCNC(=O)[C@H]([C@@H](C)O)NC(=O)[C@H](CCN)NC(=O)[C@H](CCN)NC(=O)[C@H](CC(C)C)NC(=O)[C@@H](Cc2ccccc2)NC(=O)[C@H](CCN)NC1=O)[C@@H](C)O (X1-[Dab]T[Dab][Dab][Dab][dF]L[Dab][Dab]T; lactam 4-C)
MIC ([1]; ATCC 25922, 18 h): 4 µM (≈ 4.81 µg/mL)
MIC ([2]; ATCC 43837, 18 h): 2 µM (≈ 2.41 µg/mL)
MIC [3, 33]: 8 µM (≈ 9.63 µg/mL)
MIC ([4]; ATCC 27853, 18 h): 2 µM (≈ 2.41 µg/mL)
MIC [5]: 16 µM (≈ 19.3 µg/mL)
MIC [6]: 16 µM (≈ 19.3 µg/mL)
MIC [7]: 8 µM (≈ 9.63 µg/mL)
MIC [8]: 16 µM
MIC [9]: 16 µM
MIC [10]: 8 µM
MIC [11]: 4 µM
MIC [12]: 64 µM
MIC [13]: 16 µM
MIC [14]: 32 µM
MIC [15]: 16 µM
Activity [16]: 8.49%
Activity [17]: 3.47%
Activity [18]: Active
Activity [19]: Active
Activity [20]: Active
Activity [21]: inactive
Ratio [22]: 2 - 4
Ratio [23]: 2 - 4
Ratio [24]: 2 - 4
Ratio [25]: 2 - 4
Ratio [26]: 2 - 4
Ratio [27]: 2 - 4
Ratio [28]: 2 - 4
Ratio [29]: 2 - 4
inhibition [30]: Active
Activity [31]: Active
Activity [32]: inactive

CN[C@H](CC(C)C)C(=O)N[C@H]1C(=O)N[C@@H](CC(N)=O)C(=O)N[C@H]2C(=O)N[C@H]3C(=O)N[C@H](C(=O)N[C@H](C(=O)O)c4cc(O)cc(O)c4-c4cc3ccc4O)[C@H](O)c3ccc(c(Cl)c3)Oc3cc2cc(c3O[C@@H]2O[C@H](CO)[C@@H](O)[C@H](O)[C@H]2O[C@H]2C[C@](C)(N)[C@H](O)[C@H](C)O2)Oc2ccc(cc2Cl)[C@H]1O [VANCOMYCIN]
MIC [1]: inactive
MIC [2]: inactive
MIC [3]: inactive
MIC [4]: inactive
MIC [5]: < 1 µM
MIC [6]: < 1 µM
MIC [7]: < 1 µM

CCCC(=O)NCC(=O)N[C@@H](CC(C)C)C(=O)N[C@@H](CC(C)C)C(=O)N[C@H](CCCCN)C(=O)N[C@@H](CCCNC(=N)N)C(=O)N[C@H](C(=O)N[C@H](CCCCN)C(=O)N[C@H](C(=O)N[C@@H](CC(C)C)C(=O)N[C@@H](CC(C)C)C(N)=O)[C@@H](C)O)[C@@H](C)CC
MIC ([1]; ATCC 25922, 18 h): > 128 µM
MIC ([2]; ATCC 43837, 18 h): > 128 µM
MIC [3, 33]: > 128 µM
MIC ([4]; ATCC 27853, 18 h): 128 µM (≈ 157 µg/mL)
MIC [5]: > 128 µM
MIC [6]: > 128 µM
MIC [7]: 128 µM (≈ 157 µg/mL)
